Reference: US8012980B2, “Isoquinolinone derivatives” (AstraZeneca AB, priority 2008, dated 2011)

target: T1, human active recombinant p38 (p38α) (Homo sapiens, UniProt Q16539); experiment: p38 Alpha Enzyme Assay (AlphaScreen, biotinylated-ATF2 substrate); format: biochemical; settings: means of replicate determinations; pre-incubated for 4 hours at 37° C.; SD of assay between 0.2 and 0.3 log units; read-out: p38α inhibition Mean pIC50 (converted)
T1 construct: 6His
Method: The ability of the compounds of formula (I) to inhibit p38 kinase may be determined using the following biological assay:
Enzyme assays were performed in polypropylene 96 well plates. The following solutions were added to each well; 10 μL of compound dilutions in assay buffer (20 mM HEPES pH 7.4, containing 20 mM magnesium acetate, 0.005% (w/v) Tween-20, 10 mM DTT) containing 1% (v/v) DMSO or assay buffer containing 1% (v/v) DMSO alone, 70 μL of assay buffer containing 36 nM substrate (biotinylated-ATF2) and 10 μL of an appropriate dilution of human active recombinant p38-6H is tagged. Depending on batch of p38, an appropriate dilution was typically a 5 nM solution to give a final enzyme concentration of 0.5 nM. At this stage, background control wells also received 50 μL of AlphaScreen quench buffer (10 mM HEPES pH 7.4 containing 100 mM EDTA, 0.2% (w/v) bovine serum albumin). The plate was covered, pre-incubated for 4 hours at 37° C. and the enzyme reaction initiated by addition of 10 μL 1 mM ATP. After incubation for a further 45 minutes at 37° C., the reaction was stopped by addition of 50 μL quench reagent and 50 μL of the quenched reaction mixture transferred to an opaque, white 96-well plate. Detection reagent, 25 μL of 10 mM HEPES pH 7.4 containing 100 mM EDTA, 0.2% (w/v) bovine serum albumin, 0.3 nM anti phosphoATF2 antibody and 25 μg/mL of AlphaScreen protein A acceptor and donor beads' (PerkinElmer Inc.), was added to all wells in a darkened room, the plate sealed and left in the dark for at least 5 hours before AlphaScreen readings were taken using a Perkin Elmer EnVision reader. Total, uninhibited activity was determined from assays performed in each assay plate. The mean control in the absence of p38 activity was subtracted from each well. Data were expressed as percent inhibition of total activity using equation 1. Percent Inhibition=100*(1−Test/Control) Eq.1 Where . . . Test=p38 kinase activity in the presence of compound Control=p38 kinase activity in the absence of compound.
pIC50 is defined as the logarithm of the reciprocal of the concentration of compound required for 50% reduction in total p38 kinase activity.
The standard deviation of the p38 enzyme inhibition assay is between 0.2 and 0.3 log units.

T1 sequence (Q16539 whole entry): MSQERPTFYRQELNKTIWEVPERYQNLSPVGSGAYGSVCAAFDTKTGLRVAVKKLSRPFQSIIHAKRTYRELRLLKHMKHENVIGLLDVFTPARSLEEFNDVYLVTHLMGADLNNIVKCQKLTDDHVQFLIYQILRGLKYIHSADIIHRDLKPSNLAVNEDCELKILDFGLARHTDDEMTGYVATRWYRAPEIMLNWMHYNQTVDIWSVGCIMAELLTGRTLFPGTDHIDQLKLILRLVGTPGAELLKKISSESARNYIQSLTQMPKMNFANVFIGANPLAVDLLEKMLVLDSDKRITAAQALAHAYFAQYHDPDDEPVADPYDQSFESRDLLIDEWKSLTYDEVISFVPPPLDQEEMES

Structure (SMILES)	IC50 [nM]
Cc1c(F)cc(C(=O)NC2CC2)cc1-c1ccc2c(=O)n(CC(C)(C)CO)cc(C(C)N3CCNCC3)c2c1 (racemic) [Example 38, N-Cyclopropyl-3-fluoro-5-[2-(3-hydroxy-2,2-dimethylpropyl)-1-oxo-4-(1-piperazin-1-ylethyl)-1,2-dihydroisoquinolin-6-yl]-4-methylbenzamide racemate]	0.2
Cc1c(F)cc(C(=O)NC2CC2)cc1-c1ccc2c(=O)n(CC(C)(C)CO)cc(C(C)N3CCNCC3)c2c1 (single isomer, unassigned) [Example 39, N-Cyclopropyl-3-fluoro-5-[2-(3-hydroxy-2,2-dimethylpropyl)-1-oxo-4-(1-piperazin-1-ylethyl)-1,2-dihydroisoquinolin-6-yl]-4-methylbenzamide]	0.631
Cc1c(F)cc(C(=O)NC2CC2)cc1-c1ccc2c(=O)n(CC(C)(C)CO)cc(C(C)N3CCNCC3)c2c1 (single isomer, unassigned) [Example 40, N-Cyclopropyl-3-fluoro-5-[2-(3-hydroxy-2,2-dimethylpropyl)-1-oxo-4-(1-piperazin-1-ylethyl)-1,2-dihydroisoquinolin-6-yl]-4-methylbenzamide]	0.0794
Cc1c(F)cc(C(=O)NC2CC2)cc1-c1ccc2c(=O)n(CC(C)(C)CO)cc(CN3CCNCC3)c2c1 [Example 1, N-Cyclopropyl-3-fluoro-5-[2-(3-hydroxy-2,2-dimethylpropyl)-1-oxo-4-(piperazin-1-ylmethyl)-1,2-dihydroisoquinolin-6-yl]-4-methylbenzamide]	0.126
Cc1c(F)cc(C(=O)NC2CC2)cc1-c1ccc2c(=O)n(CC(C)(C)CO)cc(CN3CCCN(C)CC3)c2c1 [Example 2, N-Cyclopropyl-3-fluoro-5-{2-(3-hydroxy-2,2-dimethylpropyl)-4-[(4-methyl-1,4-diazepan-1-yl)methyl]-1-oxo-1,2-dihydroisoquinolin-6-yl}-4-methylbenzamide]	0.251
Cc1c(F)cc(C(=O)NC2CC2)cc1-c1ccc2c(=O)n(CCCO)cc(CN3CCN[C@H](CO)C3)c2c1 [Example 3, N-Cyclopropyl-3-fluoro-5-(4-(((3S)-3-(hydroxymethyl)piperazin-1-yl)methyl)-2-(3-hydroxypropyl)-1-oxo-1,2-dihydroisoquinolin-6-yl)-4-methylbenzamide]	0.158
Cc1c(F)cc(C(=O)NC2CC2)cc1-c1ccc2c(=O)n(CCCO)cc(CN3CCN[C@@H](C)C3)c2c1 [Example 4, N-Cyclopropyl-3-fluoro-5-(2-(3-hydroxypropyl)-4-(((3S)-3-methylpiperazin-1-yl)methyl)-1-oxo-1,2-dihydroisoquinolin-6-yl)-4-methylbenzamide]	0.501
Cc1c(F)cc(C(=O)NC2CC2)cc1-c1ccc2c(=O)n(CCO)cc(CN3CCNCC3)c2c1 [Example 5, N-Cyclopropyl-3-fluoro-5-(2-(2-hydroxyethyl)-1-oxo-4-(piperazin-1-ylmethyl)-1,2-dihydroisoquinolin-6-yl)-4-methylbenzamide]	0.2
Cc1c(F)cc(C(=O)NC2CC2)cc1-c1ccc2c(=O)n(CCO)cc(CN3CCN[C@@H](C)C3)c2c1 [Example 6]	1
Cc1c(F)cc(C(=O)NC2CC2)cc1-c1ccc2c(=O)n(CCO)cc(CN3CCCN(C)CC3)c2c1 [Example 7, N-Cyclopropyl-3-fluoro-5-(2-(2-hydroxyethyl)-4-((4-methyl-1,4-diazepan-1-yl)methyl)-1-oxo-1,2-dihydroisoquinolin-6-yl)-4-methylbenzamide]	0.501
Cc1c(F)cc(C(=O)NC2CC2)cc1-c1ccc2c(=O)n(CCCCO)cc(CN3CCCN(C)CC3)c2c1 [Example 8, N-Cyclopropyl-3-fluoro-5-{2-(4-hydroxybutyl)-4-[(4-methyl-1,4-diazepan-1-yl)methyl]-1-oxo-1,2-dihydroisoquinolin-6-yl}-4-methylbenzamide]	0.251
